Measurements from US10751329B2, “Treatment of CDKL5 disorders with GSK3β inhibitor tideglusib” (priority 2016, dated 2020).

What was measured:
Cdkl5^−/Y mice [1] = test: Spine density and morphology of Golgi-stained granule cells; format: in vivo; conditions: 20 mg/kg s.c. every other day from P25, P45
Procedure: (B) Images of Golgi-stained dendritic branches of granule cells of untreated and treated Cdkl5^+/Y and Cdkl5^−/Y male mice. […] The day of birth was designed as postnatal day (P) zero (P0) and animals with 24 hours of age were considered as one-day-old animals (P1). After weaning, mice were housed three to five per cage and were on a 12-hour (h) light/dark cycle in a temperature-controlled environment with food and water provided ad libitum. […] Animals were sacrificed 4 hours after the last injection on P45. Brains were Golgi-stained using the FD Rapid Golgi Stain™ Kit (FD NeuroTechnologies, Inc., Columbia, Md., USA). […] In Golgi-stained sections, spines of granule cells were counted using a 100× oil immersion objective lens. Dendritic spine density was measured by manually counting the number of dendritic spines on dendritic segments in the inner and outer half of the molecular layer and expressed as the number of dendritic spines per 20 μm dendritic length. The dendritic spine length was measured by manually drawing a vertical line from the tip of the protrusion to the point where it met the dendritic shaft. The number of spine clusters was counted manually on dendritic segments in the inner and outer half of the molecular layer and expressed as number of spine clusters per 20 μm dendritic length. […] The number of spines belonging to the different group was counted.

Cdkl5^−/Y mice [2] = test: Passive avoidance (PA) test; format: in vivo; conditions: at the end of treatment
Procedure: Starting from postnatal day 25 (P25), Cdkl5^+/Y WT and Cdkl5^−/Y KO male mice were treated with vehicle (corn oil; Sigma-Aldrich) or NP-12 (20 mg/kg; Sigma-Aldrich), administered by subcutaneous injection every other day for 20 days. […] For the PA test we used a tilting-floor box (47×18×26 cm) divided into two compartments by a sliding door and a control unit incorporating a shocker (Ugo Basile, Italy). This classic instrument for Pavlovian conditioning exploits the tendency in mice to escape from an illuminated area into a dark one (step-through method). On the first day mice were individually placed into the illuminated compartment. After 60 seconds of habituation period, the connecting door between the chambers opened. In general, mice step quickly through the gate and enter the dark compartment because mice prefer to be in the dark. Upon entering the dark compartment, mice received a brief foot shock (0.7 mA for 3 seconds) and were removed from the chamber after 15 seconds of latency. If the mouse remained in the light compartment for the duration of the trial (358 s), the door closed and the mouse was removed from the light compartment. […] After a 24 hour retention period, mice were placed back into the light compartment and the time it took them to re-enter the dark compartment (latency) was measured up to 358 seconds.

[3] = test system: Cdkl5 KO hippocampal neurons; test: Synaptophysin (SYN) puncta in hippocampal neuronal cultures; format: cell-based, mice; conditions: 1 μM every other day, DIV7 to DIV12
Procedure: Immunostaining for cultured hippocampal neurons were performed with the following procedure. Cells were fixed in 4% PFA+4% sucrose in PBS for 20 min and washed five times in PBS. After permeabilization with PBST cells were incubated overnight at 4° C. o/n with the following antibodies: rabbit polyclonal anti-MAP2 (1:100, Millipore) and SYN (SY38) antibody (1:1000, MAB 5258, Merck Millipore). Sections were then incubated for 2 h at room temperature with a FITC-conjugated goat anti-mouse IgG (1:100; Sigma-Aldrich) and a Cy3-conjugated anti-rabbit IgG (1:100, Jackson Immunoresearch).
To develop the cultures the hippocampal neuronal cells were harvested on postnatal day 1, which was considered division 0 (DIV 0) and cultured in vitro for the remainder of the experiment. […] Results are presented as mean±SD. Data were analyzed with Duncan's test after ANOVA. A probability level of p<0.05 was considered to be statistically significant. *P, 0.05, **P<0.01, ***p<0.001 as compared to the untreated wild-type (Cdkl5+/Y) condition; #p<0.05, ##p<0.01 ###p<0.001 as compared to the untreated Cdkl5 KO (−/Y) samples.

Cdkl5^−/Y mice [4] = test: Granule cell density, number and layer volume in the dentate gyrus; format: in vivo; conditions: 20 mg/kg s.c. every other day from P25, P45
GSK3β = test: Western blot of P-GSK3β-Ser9, GSK3β and β-catenin in hippocampal extracts of treated mice; conditions: 20 mg/kg s.c. every other day from P25, P45
GSK3β-dependent targets = test: Western blot of GSK3β-dependent targets (β-catenin, P-CRMP2 Thr-514, P-CREB Ser-133) in hippocampus, juvenile and adult mice; format: in vivo; conditions: juvenile CDKL5 KO mice (treated from P25, P45)
Excerpt: Data are expressed as percentage of vehicle treated Cdkl5+/Y mice of the same age. Values are represented as means±SE. *p<0.05, **p<0.01, ***p<0.001 as compared to the vehicle-treated Cdkl5 +/Y condition; #p<0.05; ##p<0.01, ###p<0.001 as compared to the vehicle-treated Cdkl5 −/Y condition (Duncan's test after ANOVA).

Cdkl5^−/Y mice [5] = test: Hippocampal connectivity: SYN and PSD-95 immunoreactivity and puncta in the molecular layer of the DG; format: in vivo; conditions: 20 mg/kg s.c. every other day from P25, P45
Procedure: After weaning, mice were housed three to five per cage and were on a 12-hour (h) light/dark cycle in a temperature-controlled environment with food and water provided ad libitum. Starting from postnatal day 25 (P25), Cdkl5^+/Y WT and Cdkl5^−/Y KO male mice were treated with vehicle (corn oil; Sigma-Aldrich) or NP-12 (20 mg/kg; Sigma-Aldrich), administered by subcutaneous injection every other day for 20 days. Animals were sacrificed 4 hours after the last injection on P45.

CDKL5 KO mice [6] = test: Synapse development (SYN and PSD-95 puncta in the DG), juvenile mice; format: in vivo; conditions: juvenile CDKL5 KO mice (treated from P25, P45)
Procedure: (§1) FIGS. 22A-22B show an experimental protocol for evaluating the effect of NP-12 in juvenile and adult mice. Starting from postnatal day 25 (P25) for juvenile mice (A) or postnatal day 90 (P90) for adult mice (B), Cdkl5^+/Y and Cdkl5^−/Y male mice were treated with vehicle or NP-12, administered by subcutaneous injection every other day for 20 days. Animals were sacrificed after the last injection (on P45 and P110 for juvenile and adult mice, respectively) or were behaviorally tested. Abbreviations: +/Y: wildtype male mice; −/Y: Cdkl5 KO male mice; P, postnatal day.
Values are represented as means±SE. *p<0.05, **p<0.01, ***p<0.001 as compared to the vehicle-treated Cdkl5+/Y condition; #p<0.05; ##p<0.01, ###p<0.001 as compared to the vehicle-treated Cdkl5 −/Y condition (Duncan's test after ANOVA).

CDKL5 KO mice [7] = test: Neuronal survival and maturation (DCX-positive neurons, dendritic length and branches), juvenile and adult mice; format: in vivo; conditions: juvenile CDKL5 KO mice (treated from P25, P45)
Procedure: as §1
FIGS. 25A-25B show the quantification of the number of DCX-positive postmitotic neurons in the dentate gyrus of vehicle treated and NP-12 treated Cdkl5+/Y and −/Y male mice aged P45 (A) and aged P110 (B). Data are expressed as number of cells/100 μm. Values are represented as means±SE. *p<0.05, **p<0.01, ***p<0.001 as compared to the vehicle-treated Cdkl5+/Y condition; #p<0.05; ##p<0.01, ###p<0.001 as compared to the vehicle-treated Cdkl5 −/Y condition (Duncan's test after ANOVA).
FIGS. 26A-26B show the mean total dendritic length and mean number of dendritic branches of newborn granule cells of vehicle treated and NP-12 treated Cdkl5+/Y and −/Y male mice aged P45 (A) and aged P110 (B).

Cdkl5^−/Y mice [8] = test: Dendritic development of granule cells (DCX and Golgi staining); format: in vivo; conditions: 20 mg/kg s.c. every other day from P25, P45
Procedure: After weaning, mice were housed three to five per cage and were on a 12-hour (h) light/dark cycle in a temperature-controlled environment with food and water provided ad libitum. […] Animals were sacrificed 4 hours after the last injection on P45.

[9] = test system: hippocampal neurons from Cdkl5 KO mice; test: Polarization and morphological analysis of MAP2-stained hippocampal neurons; format: cell-based; conditions: Cdkl5 KO hippocampal cultures; 1 μM, DIV10
Excerpt: (C-D) Graphs showing the percentage of polarized neurons (C) and the quantification of the length of the longest axon and dendrite (D) in treated and untreated in hippocampal cultures as in A. (E) Representative images of MAP2-stained hippocampal neurons as in A. Data are expressed as fold difference in comparison to hippocampal neurons from untreated Cdkl5^+/Y mice. Values are represented as means±SD. *p<0.05 as compared to the untreated Cdkl5^+/Y condition; #p<0.05; ##p<0.01 as compared to the untreated Cdkl5^−/Y samples (Duncan's test after ANOVA).
Hippocampal neurons were prepared from postnatal day 1 (P1) Cdkl5^−/Y and Cdkl5^X/Y male mice. […]
To define the degree of polarization of neuronal dendrites, we followed the method described by Horton et al. (FIG. 3) (Horton et al. 2006. Brain Cell. Biol. 35:29-38). Briefly, the measured lengths of dendrites (Lm) in each neuron (including the primary dendrite/axon with all its branches) were ranked highest to lowest. […]
The morphological analysis of hippocampal neurons was focused on two parameters: length of the longest dendrite (D1) and total dendritic length. To achieve this aim, dendritic length of MAP2-positive neurons were measured and quantified by tracing along each neuronal projection using the image analysis system Image Pro Plus (Media Cybernetics, Silver Spring, Md. 20910, USA). […]

CDKL5 KO mice [10] = test: Hippocampus-dependent learning and memory (Morris water maze, passive avoidance), juvenile and adult mice; format: in vivo; conditions: juvenile CDKL5 KO mice (treated from P25, P45)
Procedure: Starting from postnatal day 25 (P25) for juvenile mice (A) or postnatal day 90 (P90) for adult mice (B), Cdkl5^+/Y and Cdkl5^−/Y male mice were treated with vehicle or NP-12, administered by subcutaneous injection every other day for 20 days. Animals were sacrificed after the last injection (on P45 and P110 for juvenile and adult mice, respectively) or were behaviorally tested. […] Spatial learning and memory (probe test) assessed with the Morris water maze in vehicle treated and NP-12 treated Cdkl5+/Y and −/Y male mice aged P45 (A) and aged P110 (B). Passive avoidance test (PA) on vehicle treated and NP-12 treated Cdkl5+/Y and −/Y male mice aged P45 (C). Graphs show the latency time to enter the dark compartment on the first day and on the second day of the behavioral procedure. Values are represented as means±SE. *p<0.05, **p<0.01, ***p<0.001 as compared to the vehicle-treated Cdkl5+/Y condition; #p<0.05; ##p<0.01, ###p<0.001 as compared to the vehicle-treated Cdkl5−/Y condition (Duncan's test after ANOVA).

Cdkl5^−/Y mice [11] = test: Neuronal survival in the dentate gyrus (cleaved caspase-3, DCX immunohistochemistry); format: in vivo; conditions: 20 mg/kg s.c. every other day from P25, P45
Excerpt: (B,C) Examples of sections processed for DCX immunostaining from the dentate gyrus (DG) of untreated and treated Cdkl5^+/Y and Cdkl5^−/Y male mice. (C). […] Scale bar=30 μm; type 2b/3 cells and immature neurons were counted separately. (B) Number of DCX-positive type 2b/3 precursor cells and DCX-positive immature neurons in the DG of mice of untreated (+/Y n=3, −/Y n=3) and treated (+/Y n=3, −/Y n=3) Cdkl5 mice. Values in A represent totals for one DG (mean±SD), data in B are expressed as number of cells/100 μm. *p<0.05; **p<0.01 as compared to the untreated Cdkl5^+/Y condition; ##p<0.01; ###p<0.001 as compared to the untreated Cdkl5^−/Y samples (Duncan's test after ANOVA). Abbreviations: GR, granular layer; SGZ, subgranular zone.
The day of birth was designed as postnatal day (P) zero (P0) and animals with 24 hours of age were considered as one-day-old animals (P1). After weaning, mice were housed three to five per cage and were on a 12-hour (h) light/dark cycle in a temperature-controlled environment with food and water provided ad libitum. […]
One out of 6 sections from the hippocampal formation were used for immunohistochemistry for cleaved caspase-3 (1:200, anti-cleaved caspase-3 rabbit polyclonal Ab, Cell Signaling Technology), doublecortin (1:100, anti-DCX goat polyclonal Ab, Santa Cruz Biotechnology), synaptophysin (1:1000, anti-SYN (SY38) mouse monoclonal Ab, MAB 5258, Merck Millipore) and PSD-95 (1:1000, anti-PSD-95 rabbit polyclonal Ab, Abcam) or double fluorescence immunohistochemistry for synaptophysin, and PSD-95. […]
The total number of positive cells in the DG (cleaved caspase-3, DCX) was estimated by multiplying the total number counted in the series of sampled sections by the inverse of the section sampling fraction (ssf=⅙). The total number of cells of each phenotype was estimated by multiplying the number counted in the series of sections by the inverse of the section sampling fraction (ssf=⅙).

[12] = test system: GSK3β Ser9-phosphorylation in hippocampal neurons from Cdkl5 KO mice; test: Western blot of P-GSK3β-Ser9 in hippocampal neuronal cultures (DIV10); format: cell-based; conditions: chronic treatment 1 μm from DIV2, DIV10
Procedure: Hippocampal cultures were treated with 1 μm NP-12 starting from DIV2. […] Values are represented as means±SD. *p<0.05 as compared to the untreated Cdkl5^+/Y condition; #p<0.05; ##p<0.01 as compared to the untreated Cdkl5^−/Y samples (Duncan's test after ANOVA).
Hippocampal neurons were prepared from postnatal day 1 (P1) Cdkl5^−/Y and Cdkl5^X/Y male mice. Briefly, hippocampi were dissected from mouse brains under a dissection microscope and treated with trypsin (Sigma Aldrich) for 15 min at 37° C. and DNase (Sigma Aldrich) for 2 min at room temperature before triturating mechanically with fire-polished glass pipette to obtain a single-cell suspension. Approximately 1.2×10^5 cells were plated on coverslips coated with poly-1-lysine in 12-well plates and cultures in Neurobasal medium (Invitrogen) supplemented with B27 (Invitrogen) and glutamine (Invitrogen). Cells were maintained in vitro at 37° C. in a 5% CO2-humified incubator and fixed for immunostaining or Western Blot analysis at 10 days after plating (DIV10). 1 μM NP-12 (Sigma) was administrated on alternate days.
For Western Blot analysis hippocampal neurons at DIV10 were lysed in ice-cold RIPA lysis buffer (50 mM Tris-HCl pH 7.4, 150 mM NaCl, 1% Triton-X100, 0.5% sodium deoxycholate, 0.1% SDS) supplemented with 1 mM PMSF and 1% proteases and phosphatases inhibitor cocktail (Sigma). […]

CDKL5 KO mice [13] = conditions: cited from earlier work

For `O=c1sn(-c2cccc3ccccc23)c(=O)n1Cc1ccccc1` [NP-12, tideglusib], the “dendritic spine density of granule cells” value (Cdkl5^−/Y mice [1]) was “no effect on spine density”, the “spine shape morphology (percentage of immature and mature spines)” value (Cdkl5^−/Y mice [1]; Cdkl5 KO mice) was “completely restored” and the “latency time to enter the dark compartment, second day (test)” value (Cdkl5^−/Y mice [2]; Cdkl5^−/Y mice, 24 hours after shock) was “underwent an increase and there was no significant difference in comparison to untreated Cdkl5^+/Y mice”. The “latency time to enter the dark compartment, first day” value (Cdkl5^−/Y mice [2]; all groups) was “all groups showed similar step-through latencies”, the “number of synaptophysin (SYN) puncta” value [3] was “completely restore” and the “granule cell density in the dentate gyrus” value (Cdkl5^−/Y mice [4]) was “fully restored”. For the same molecule, the “total granule cell number in the dentate gyrus” value (Cdkl5^−/Y mice [4]) was “fully restored”, the “volume of the granule cell layer” value (Cdkl5^−/Y mice [4]) was “without affecting the volume of the granule cell layer” and the “total GSK3β levels in hippocampus” value (GSK3β) was “no effect”. For the same molecule, the “Ser9-phosphorylated GSK3β levels in hippocampus” value (GSK3β; Cdkl5^−/Y male mice) was “increased Ser9-phosphorylated GSK3β levels in Cdkl5^−/Y mice that became even higher to those of the untreated Cdkl5^+/Y counterparts”, the “β-catenin levels in hippocampus” value (GSK3β; Cdkl5^−/Y male mice) was “complete recovery of β-catenin levels” and the “GSK3β-dependent targets (β-catenin, P-CRMP2 Thr-514, P-CREB Ser-133)” value (GSK3β-dependent targets) was “restores GSK3β-dependent targets in juvenile”. For the same molecule, the “density of PSD-95 puncta in the molecular layer of the DG” value (Cdkl5^−/Y mice [5]) was “completely restored”, the “density of SYN puncta in the molecular layer of the DG” value (Cdkl5^−/Y mice [5]) was “completely restored” and the “optical density of PSD-95 immunoreactivity in the molecular layer of the DG” value (Cdkl5^−/Y mice [5]) was “fully rescued”. For the same molecule, the “optical density of SYN immunoreactivity in the molecular layer of the DG” value (Cdkl5^−/Y mice [5]) was “fully rescued”, the “synapse development (SYN and PSD-95 puncta)” value (CDKL5 KO mice [6]) was “restores synapse development in juvenile CDKL5 KO mice” and the “neuronal survival and maturation” value (CDKL5 KO mice [7]) was “restores neuronal survival and maturation in juvenile”. The “dendritic length of newborn (DCX-positive) granule cells” value (Cdkl5^−/Y mice [8]) was “increase in both parameters that became similar or even greater than those of untreated Cdkl5^+/Y mice”, the “dendritic length of older Golgi-stained granule cells” value (Cdkl5^−/Y mice [8]) was “completely rescued” and the “number of dendritic branches of newborn (DCX-positive) granule cells” value (Cdkl5^−/Y mice [8]) was “increase in both parameters that became similar or even greater than those of untreated Cdkl5^+/Y mice”. The “number of dendritic segments of older Golgi-stained granule cells” value (Cdkl5^−/Y mice [8]) was “completely rescued”, the “axon and dendrite maturation (length of the longest axon and dendrite)” value [9] was “had positive effects on correct axon and dendrite maturation” and the “percentage of polarized neurons” value [9] was “efficiently ameliorated the percentage of polarized neurons”. For the same molecule, the “hippocampus-dependent behavior defects (learning and memory)” value (CDKL5 KO mice [10]) was “corrects hippocampus-dependent behavior defects in juvenile”, the “cell death: cleaved caspase-3 positive cells in the dentate gyrus” value (Cdkl5^−/Y mice [11]; Cdkl5 KO male mice) was “completely restored” and the “survival rate of the postmitotic granule cells” value (Cdkl5^−/Y mice [11]; Cdkl5^−/Y mice) was “restores the survival rate of the postmitotic granule cells”. For the same molecule, the “number of DCX-positive immature neurons in the dentate gyrus” value (Cdkl5^−/Y mice [11]; treated mice vs untreated Cdkl5^+/Y) was “underwent an increase in the number of DCX-positive neurons, that became similar to that of untreated Cdkl5^+/Y littermates” and the “GSK3β Ser9-phosphorylation” value [12] was “completely restores GSK3β Ser9-phosphorylation”.

For `Cn1cc(C2=C(c3ccc(Cl)cc3Cl)C(=O)NC2=O)c2ccccc21` [SB216763], the hippocampal development (CDKL5 KO mice [13]) is given as “restore hippocampal development by restoring dendritic development, spine morphology and distribution, survival of newborn granule cells, and connectivity”.
